Each block holds one compound with its values, some of them ahead of it.
Tests used:
Salmonella typhi = assay: Kirby-Bauer disk diffusion antibacterial assay; type: cell-based; conditions: Salmonella enterica, 24 h, read-out: Inhibition zone, Salmonella typhi
Bacillus subtilis = assay: Kirby-Bauer disk diffusion antibacterial assay; type: cell-based; conditions: 6 mm disc, extract 0.5 mg, chloramphenicol 0.025 mg, 24 h 37°C
Procedure: (§1) The Kirby-Bauer disk diffusion method ([31]) was used for the evaluation of the antibacterial activity of MExt. Four test organisms, viz.; Salmonella typhimurium (ATTC13311), Escherichia coli (MTCC 739), Bacillus subtilis (MTTCC 121), Staphylococcus aureus (ATCC 1026), were grown in Mueller-Hinton broth (MHB) at 37°C and 160 rpm and brought to its exponential phase. The sample was prepared by dissolving the MExt in 50% DMSO (at 25 mg/mL w/v concentration) and filtering through a (0.22 μm) syringe filter. Hundred microliter of each bacterial strain, equivalent to 0.5 McFarland turbidity were spread over sterile Mueller-Hinton agar (MHA) plate using a sterile swab. A 20 μL sample (0.5 mg) impregnated in a 6 mm sterile disc was seeded on the freshly spread MHA plates and incubated for 24 h at 37°C. Chloramphenicol 0.025 mg was used as a positive control. One reagent control containing the buffer and solvent used was also included in the experiment. The zone of inhibition was recorded using a Vernier caliper.

Staphylococcus aureus = assay: Kirby-Bauer disk diffusion antibacterial assay; type: cell-based; conditions: 6 mm disc, extract 0.5 mg, chloramphenicol 0.025 mg, 24 h 37°C
Procedure: as §1

Escherichia coli = assay: Kirby-Bauer disk diffusion antibacterial assay; type: cell-based; conditions: 6 mm disc, extract 0.5 mg, chloramphenicol 0.025 mg, 24 h 37°C, read-out: Inhibition zone, Eschericia coli
Procedure: as §1

[1] = DPPH radical scavenging assay; type: biochemical; conditions: 30 min in the dark, 517 nm
Procedure: 0.1 mL of each of the five different concentrations of the extract was mixed with 1.9 mL DPPH reagent prepared in methanol (A517 = 1.1 + 0.01). The mixture was incubated for 30 min in the dark and then read at 517 nm. The radical scavenging activity (RSA) of each extract was calculated as follows ([26]).
RSA%=(Acontrol−Asample)/AcontrolX100%
From the RSA%, 50 inhibitory concentration (IC50) was calculated and expressed in μg/mL.

[2] = ABTS radical scavenging assay; type: biochemical; conditions: 30 min in the dark, 734 nm
Procedure: ABTS radical scavenging activity was performed as described by Singh et al. ([26]). The reaction mixture containing 0.1 mL of extract was mixed with 1.9 mL ABTS radical ([…] = 1.0 ± 0.01) then incubated for 30 min in the dark, and the absorbance was read at 734 nm. RSA and IC50 of the extract were calculated as described above.

[3] = system: HeLa (human cervical cancer cell line); assay: In vitro cytotoxicity, Sulforhodamine B (SRB) assay; type: cell-based; conditions: 48 h, read-out: IC50 against HeLa cells
Procedure: The cytotoxic activity of MExt was investigated using Sulforhodamine B colorimetric (SRB) assay against HeLa (human cervical cancer cell line). The cell was maintained in a Dulbecco’s Modified Eagle Medium (DMEM). […] The monolayer cells were then fixed with 10% Trichloroacetic acid (TCA) for 1 h at […] followed by washing with water. After drying, the cell plates were stained with SRB for 30 min and then washed with 1% acetic acid. The SRB dye bound to the protein was then dissolved by adding 10 mM Tris base (pH 10.5). The SRB dye released was quantified by taking absorbance at 510 nm in Varioskan Flash Multimode Reader (Thermo Fisher Scientific, United States) ([32]).

SMILES: O=C(N[C@H](CO)[C@H](O)c1ccc([N+](=O)[O-])cc1)C(Cl)Cl [Chloramphenicol]
- zone of inhibition at 25 µg/disc (Salmonella typhi): 30 ± 2 mm
- zone of inhibition at 25 µg/disc (Bacillus subtilis): 30.2 ± 1.6 mm
- zone of inhibition at 25 µg/disc (Staphylococcus aureus): 29 ± 1 mm
- zone of inhibition at 25 µg/disc (Escherichia coli): 28 ± 2.2 mm

- DPPH (IC50) [1]: 3 mg/L
- DPPH (IC50) ([1]; listed as Vitamin C): 5.40 ± 0.30 mg/L
- ABTS (IC50) [2]: 5.4 mg/L
- ABTS (IC50) ([2]; listed as Vitamin C): 3.00 ± 0.40 mg/L
SMILES: O=C1O[C@H]([C@@H](O)CO)C(O)=C1O [Ascorbic acid]

SMILES: COc1cccc2c1C(=O)c1c(O)c3c(c(O)c1C2=O)C[C@@](O)(C(=O)CO)C[C@@H]3O[C@H]1C[C@H](N)[C@H](O)[C@H](C)O1 [Doxorubicin]
- IC50 [3]: < 5 mg/L

From article PMC10277484, “Bioactivity and nutritional quality of nutgall (Rhus semialata Murray), an underutilized fruit of Manipur” (Frontiers in Nutrition, 2023)
